Results taken from patent publication US20180250306A1, “ALDEHYDE CONJUGATES AND USES THEREOF” (ALDEYRA THERAPEUTICS, INC., priority 2015, published 2018).

Experiments:
[1] = Aldehyde adduct formation over time (product HPLC peak); details: for Formation of Product, ranking, 7 Hours / Formation of Product, ranking, 23 Hours: rank from most effective (1) to least
Description: It is not possible to conclude if this is the result of poor dissociation (from cyclodextrin) or poor interaction with the aldehyde. Best fit lines over this period give excellent fit to data. […] It can be used to relatively rank each of the samples examined, including NS2. The data were first evaluated over a 7 h time window.

[2] = Consumption of 4HNE over time (HPLC, 254 nm); details: for Consumption of 4HNE, ranking, 7 Hours / Consumption of 4HNE, ranking, 23 Hours: rank from most effective (1) to least; for Consumption of 4HNE, ranking, 23 Hours: ranks 1-4 essentially identical; for decrease in HNE relative to corresponding increase in adduct: 1 week time period
Excerpt: 5 of 6 samples show consumption of 4HNE. One sample (2-(3-aminoquinolin-2-yl)propan-2-ol) overlaps 4HNE HPLC peak using current method. Best fit lines over this period give poorer fit to data than product formation data. Rate of 4HNE consumption can be used as an approximation of binding kinetics. […] The data were used to rank relatively each of the samples examined, including NS-2 but excluding 2-(3-aminoquinolin-2-yl)propan-2-ol.

Row | Structure (SMILES) | Gradient of product HPLC peak increase (rate of adduct formation) ([1]; 7 h time window) | Gradient of product HPLC peak increase (rate of adduct formation) ([1]; 23 h time window) | Formation of Product, ranking, 7 Hours [1] | Formation of Product, ranking, 23 Hours [1] | Gradient of 4HNE consumption ([2]; 23 h) | Gradient of 4HNE consumption ([2]; first 7 h, analysis at 254 nm) | Consumption of 4HNE, ranking, 7 Hours [2] | Consumption of 4HNE, ranking, 23 Hours [2] | decrease in HNE relative to corresponding increase in adduct [2]
1 | CC(C)(O)c1nc2cccc(Cl)c2cc1N [2-(3-amino-5-chloroquinolin-2yl)propan-2-ol] | (Gradient 0.86, | (Gradient 0.44, | 6 | 6 | (Gradient −0.04, | (Gradient −0.05, | 3 | 2 | –
2 | CC(C)(O)c1nc2ccc(Br)cc2cc1N [2-(3-amino-6-bromoquinolin-2-yl)propan-2-ol] | (Gradient 1.63, | (Gradient 1.16, | 4 | 4 | (Gradient −0.04, | (Gradient −0.04, | 4 | 4 | –
3 | CC(C)(O)c1nc2cc(Cl)ccc2cc1N [2-(3-amino-7-chloroquinolin-2-yl)propan-2-ol] | (Gradient 2.02, | (Gradient 1.21, | 3 | 3 | (Gradient −0.05, | (Gradient −0.06, | 2 | 1 | greater
4 | CC(C)(O)c1nc2c(Cl)cccc2cc1N [2-(3-amino-8-chloroquinolin-2-yl)propan-2-ol] | (Gradient 1.18, | (Gradient 0.81, | 5 | 5 | (Gradient −0.02, | (Gradient −0.01, | 5 | 5 | greater
5 | CC(C)(O)c1nc2ccccc2cc1N [2-(3-aminoquinolin-2-yl)propan-2-ol] | (Gradient 3.68, | (Gradient 1.99, | 1 | 1 | – | – | – | – | –
